In the NIST ThermoML archive (doi:10.1016/j.fluid.2015.08.029):

Assay: xn = mol fraction of the nth substance listed
Conditions: Buoyancy - hydrostatic balance with magnetic suspension - one sinker, x2 = 0.95

C [methane] + O=C=O
Conditions | mass density [kg/m3]
300.07 K, 7972.2 kPa, Fluid (supercritical or subcritical phases) | 556.595
300.14 K, 8371 kPa, Fluid (supercritical or subcritical phases) | 616.06
300.14 K, 8570.3 kPa, Fluid (supercritical or subcritical phases) | 633.917
300.15 K, 8770.2 kPa, Fluid (supercritical or subcritical phases) | 648.153
300.15 K, 8969.4 kPa, Fluid (supercritical or subcritical phases) | 660.072
300.15 K, 9169.7 kPa, Fluid (supercritical or subcritical phases) | 670.371
300.15 K, 9370.4 kPa, Fluid (supercritical or subcritical phases) | 679.432
300.15 K, 9569.6 kPa, Fluid (supercritical or subcritical phases) | 687.435
300.15 K, 9968.4 kPa, Fluid (supercritical or subcritical phases) | 701.498
300.16 K, 9768.4 kPa, Fluid (supercritical or subcritical phases) | 694.681
300.17 K, 8169.8 kPa, Fluid (supercritical or subcritical phases) | 590.047
301.07 K, 7972.4 kPa, Fluid (supercritical or subcritical phases) | 491.013
301.08 K, 7573.6 kPa, Liquid | 317.651
301.11 K, 7972.7 kPa, Liquid | 489.743
301.11 K, 8970.7 kPa, Liquid | 641.991
301.13 K, 6976 kPa, Gas | 227.803
301.13 K, 7872.3 kPa, Liquid | 446.609
301.14 K, 4003.5 kPa, Gas | 86.6567
301.14 K, 5978.2 kPa, Gas | 160.13
301.14 K, 7972.1 kPa, Liquid | 486.831
301.14 K, 8170.1 kPa, Liquid | 548.746
301.14 K, 8371.5 kPa, Fluid (supercritical or subcritical phases) | 585.039
301.14 K, 8570.7 kPa, Fluid (supercritical or subcritical phases) | 609.188
301.14 K, 9969.4 kPa, Liquid | 689.045
301.14 K, 10967 kPa, Liquid | 718.917
301.14 K, 11966 kPa, Liquid | 741.154
301.15 K, 1990.5 kPa, Gas | 37.5288
301.15 K, 2980.5 kPa, Gas | 59.7905
301.15 K, 4979.8 kPa, Gas | 117.931
301.15 K, 7772.9 kPa, Liquid | 394.053
301.15 K, 8071.6 kPa, Liquid | 522.073
301.15 K, 8271.7 kPa, Liquid | 569.213
301.15 K, 8770.5 kPa, Fluid (supercritical or subcritical phases) | 627.154
301.15 K, 8970.7 kPa, Fluid (supercritical or subcritical phases) | 641.721
301.15 K, 9370.6 kPa, Fluid (supercritical or subcritical phases) | 664.364
301.15 K, 9568.5 kPa, Fluid (supercritical or subcritical phases) | 673.475
301.15 K, 9768.6 kPa, Fluid (supercritical or subcritical phases) | 681.815
301.15 K, 9968.2 kPa, Fluid (supercritical or subcritical phases) | 689.247
301.16 K, 7673.5 kPa, Liquid | 347.909
301.16 K, 9169.7 kPa, Fluid (supercritical or subcritical phases) | 653.715
301.17 K, 8170.5 kPa, Fluid (supercritical or subcritical phases) | 547.088
302.07 K, 7971.5 kPa, Fluid (supercritical or subcritical phases) | 416.856
302.09 K, 7574.3 kPa, Liquid | 293.998
302.14 K, 7873.7 kPa, Liquid | 376.389
302.14 K, 8073.1 kPa, Liquid | 455.2
302.14 K, 8171.5 kPa, Liquid | 491.43
302.14 K, 8273.3 kPa, Liquid | 521.984
302.15 K, 7774.4 kPa, Liquid | 340.924
302.15 K, 7973.5 kPa, Liquid | 414.824
302.15 K, 8570 kPa, Fluid (supercritical or subcritical phases) | 578.598
302.15 K, 8769.9 kPa, Fluid (supercritical or subcritical phases) | 602.454
302.15 K, 8969.1 kPa, Fluid (supercritical or subcritical phases) | 620.555
302.15 K, 9168.8 kPa, Fluid (supercritical or subcritical phases) | 635.22
302.15 K, 9369 kPa, Fluid (supercritical or subcritical phases) | 647.538
302.16 K, 7674.4 kPa, Liquid | 312.96
302.16 K, 8169.9 kPa, Fluid (supercritical or subcritical phases) | 489.715
302.16 K, 8371.1 kPa, Fluid (supercritical or subcritical phases) | 543.85
302.16 K, 9568.3 kPa, Fluid (supercritical or subcritical phases) | 658.091
302.16 K, 9768.3 kPa, Fluid (supercritical or subcritical phases) | 667.497
302.16 K, 9970.6 kPa, Fluid (supercritical or subcritical phases) | 676.016
303.08 K, 7971 kPa, Fluid (supercritical or subcritical phases) | 368.276
303.15 K, 8169 kPa, Fluid (supercritical or subcritical phases) | 434.951
303.15 K, 8369.8 kPa, Fluid (supercritical or subcritical phases) | 500.535
303.15 K, 8569.4 kPa, Fluid (supercritical or subcritical phases) | 546.267
303.15 K, 8770.2 kPa, Fluid (supercritical or subcritical phases) | 577.054
303.16 K, 9168.7 kPa, Fluid (supercritical or subcritical phases) | 616.875
303.16 K, 9368.4 kPa, Fluid (supercritical or subcritical phases) | 631.164
303.16 K, 9567.7 kPa, Fluid (supercritical or subcritical phases) | 643.384
303.16 K, 9967.1 kPa, Fluid (supercritical or subcritical phases) | 663.476
303.17 K, 8969.3 kPa, Fluid (supercritical or subcritical phases) | 598.947
303.17 K, 9768 kPa, Fluid (supercritical or subcritical phases) | 653.938
304.1 K, 7971.1 kPa, Fluid (supercritical or subcritical phases) | 329.354
304.14 K, 8569.2 kPa, Fluid (supercritical or subcritical phases) | 496.33
304.14 K, 8968.4 kPa, Fluid (supercritical or subcritical phases) | 567.739
304.15 K, 8769.3 kPa, Fluid (supercritical or subcritical phases) | 537.629
304.15 K, 9169.5 kPa, Fluid (supercritical or subcritical phases) | 590.204
304.15 K, 9567.9 kPa, Fluid (supercritical or subcritical phases) | 622.735
304.16 K, 8171.5 kPa, Fluid (supercritical or subcritical phases) | 378.227
304.16 K, 9973.8 kPa, Fluid (supercritical or subcritical phases) | 646.365
304.17 K, 8370 kPa, Fluid (supercritical or subcritical phases) | 438.794
304.17 K, 9370.7 kPa, Fluid (supercritical or subcritical phases) | 607.811
304.17 K, 9767.3 kPa, Fluid (supercritical or subcritical phases) | 634.947
305.11 K, 7971.7 kPa, Fluid (supercritical or subcritical phases) | 307.661
305.15 K, 8371 kPa, Fluid (supercritical or subcritical phases) | 394.247
305.15 K, 8569.8 kPa, Fluid (supercritical or subcritical phases) | 449.045
305.15 K, 8769.4 kPa, Fluid (supercritical or subcritical phases) | 497.809
305.15 K, 8968.6 kPa, Fluid (supercritical or subcritical phases) | 535.323
305.15 K, 9168.3 kPa, Fluid (supercritical or subcritical phases) | 563.28
305.15 K, 9568.1 kPa, Fluid (supercritical or subcritical phases) | 602.629
305.16 K, 8169.9 kPa, Fluid (supercritical or subcritical phases) | 344.406
